Data taken from patent US4925870A, “Therapeutic use of proanthocyanidine A2 as a cytoprotective agent” (Inverni Della Beffa SpA, priority 1985, dated 1990).
Entries after “also recorded” stand apart in the source; their conditions may differ.

Assays:
[1] = Activity on wound scar resistance in normal mice by oral route (force necessary for breaking a cutaneous scar); assay type: in vivo; settings: n = 20
Text: The method used was that of Sixth et al., Arzneim. Forsch. 18, 1460, 1968.

[2] = Capillary resistance in rats fed on vitamin P deprived diet; assay type: in vivo; settings: for Percent increase (capillary resistance) in comparison with controls: n = 8
Experimental: The latter was evaluated by the method of Charlier R. et al., Arch. Int. Physiol. Bioch.

rat hepatic microsomes [3] = test: NADPH consumption by hepatic microsomes; assay type: biochemical; settings: for IC50: NADPH 500 μM + Fe^2+ 20 μM + ADP 500 μM
rat hepatic microsomes [4] = test: In vitro inhibition of lipid peroxidation (MDA formation) on rat hepatic microsomes; assay type: biochemical; settings: for IC50: in vitro, rat hepatic microsomes + NADPH + Fe^2+ ADP
[5] = Acute toxicity on topical administration; settings: administered topically
[6] = Acute toxicity in the mouse; settings: for LD50: mouse, in vivo
Experimental: (§1) The acute toxicity of proanthocyanidine A2 was determined in the mouse and rat on administration by the oral and intreperitoneal routes.

[7] = Wound healing activity on prednisone treated rats by topical application; assay type: in vivo
Text: (§2) The triterpene fraction obtained from Centella asiatica (CATS), a well-known cicatrizant or healing agent widely used in some European countries, has been chosen as comparison drug.

[8] = Healing (cicatrising) activity, general statement (topical and oral route, normal and steroid treated animals); settings: in vivo
rat brain = test: Rat brain ex vivo anti-lipid peroxidation test
Experimental: (§3) Proanthocyanidine A2 was assayed for anti-lipid peroxidation activity "in vitro" on rat brain homogenate according to the method of Saeed S. A. et al., Biochem. Soc. Trans 9, 442-443, 1981 and on rat hepatic microsomes according to the method of Jha H. C. et al., Biochem. Pharmacol. 34 , 1367-1369, 1985. […] This activity was confirmed on a rat brain "ex vivo" test.

[9] = Anti-ulcer activity after i.p. administration on ASA induced gastric ulcers in rats; assay type: in vivo; settings: for Changes in U.I. in comparison with controls / No. of stomach without lesions / Ulceration index (U.I.) mean: i.p., n = 10
Text: This activity is believed to be a consequence of its healing activity and microcirculation protecting activity.

[10] = Acute toxicity in the rat; settings: in vivo
Experimental: as §1

[11] = Wound healing activity by oral route in rats treated with prednisone; assay type: in vivo; settings: for Surface after 3 days of administrations (m ± s.e.) / percent variation of surface in comparison with prednisone controls: oral; for percent variation of surface in comparison with prednisone controls: after 3 days
Text: as §2

rat brain homogenate = test: In vitro inhibition of lipid peroxidation (MDA formation) on rat brain homogenate; assay type: biochemical; settings: for IC50: rat brain homogenate
Experimental: as §3

Structure (SMILES): Oc1cc(O)c2c(c1)O[C@@]1(c3ccc(O)c(O)c3)Oc3cc(O)c4c(c3[C@@H]2[C@H]1O)O[C@H](c1ccc(O)c(O)c1)[C@H](O)C4 [Proanthocyanidine A2]
- Percent increase in comparison (with controls) ([1]; 100 mg/kg): +32.5%
- Tension (m + S.E.) ([1]; 100 mg/kg): 104.11 + 4.25 g
- Percent increase in comparison (with controls) ([1]; 200 mg/kg): +46.6%
- Tension (m + S.E.) ([1]; 200 mg/kg): 115.12 + 4.90 g
- vasotropic / venotonic activity (in words) ([2]; capillary permeability and resistance): possesses a vasotropic activity in terms of modification of capillary permeability and resistance; also recorded: normalizing conditions of impaired capillary permeability and capillary fragility
- Percent increase (capillary resistance) in comparison with controls ([2]; oral 200 mg/kg × 3 days, 0 hours after third administration): 5%
- Percent increase (capillary resistance) in comparison with controls ([2]; oral 200 mg/kg × 3 days, 2 hours after third administration): 9%
- Percent increase (capillary resistance) in comparison with controls ([2]; oral 200 mg/kg × 3 days, 4 hours after third administration): 9%
- Percent increase (capillary resistance) in comparison with controls ([2]; oral 200 mg/kg × 3 days, 6 hours after third administration): 6%
- Percent increase (capillary resistance) in comparison with controls ([2]; oral 400 mg/kg × 3 days, 0 hours after third administration): 7%
- Percent increase (capillary resistance) in comparison with controls ([2]; oral 400 mg/kg × 3 days, 2 hours after third administration): 15%
- Percent increase (capillary resistance) in comparison with controls ([2]; oral 400 mg/kg × 3 days, 4 hours after third administration): 14%
- Percent increase (capillary resistance) in comparison with controls ([2]; oral 400 mg/kg × 3 days, 6 hours after third administration): 13%
- IC50 (rat hepatic microsomes [3]): 14 µM
- column headed by drawing 3 (hepatic microsomes) (ratio of NADPH consumption IC50 to MDA formation IC50, by arithmetic) (rat hepatic microsomes [3]; hepatic microsomes): 17.5
- inhibiting activity on NADPH consumption (in words) (rat hepatic microsomes [3]; in vitro, hepatic microsomes): low inhibiting activity
- column headed by drawing 2 under MDA formation (ratio of hepatic microsomes IC50 to brain homogenate IC50, by arithmetic) (rat hepatic microsomes [4]): 1.8
- IC50 (rat hepatic microsomes [4]): 0.8 µM
- acute toxicity (in words) [5]: negligable acute toxicity
- LD50 ([6]; ip): > 6000 mg/kg
- LD50 ([6]; po): > 6000 mg/kg
- acute toxicity (in words) ([6]; oral and intraperitoneal routes, mouse and rat): does not exhibit significant acute toxicity
- Wound area (m ± s.e.) ([7]; concentration 1%, day 0 (baseline), n = 10): 324.55 ± 3.77 mm^2
- percent variation of wound area in comparison with prednisone controls ([7]; concentration 1%, day 1): -8.17%
- Wound area (m ± s.e.) ([7]; concentration 1%, day 1, n = 10): 317.39 ± 3.37 mm^2
- percent variation of wound area in comparison with prednisone controls ([7]; concentration 1%, day 2): -9.70%
- Wound area (m ± s.e.) ([7]; concentration 1%, day 2, n = 10): 315.04 ± 3.58 mm^2
- percent variation of wound area in comparison with prednisone controls ([7]; concentration 1%, day 3): -9.60%
- Wound area (m ± s.e.) ([7]; concentration 1%, day 3, n = 10): 308.01 ± 3.77 mm^2
- Wound area (m ± s.e.) ([7]; concentration 2%, day 0 (baseline), n = 10): 327.71 ± 2.92 mm^2
- percent variation of wound area in comparison with prednisone controls ([7]; concentration 2%, day 1): -8.17%
- Wound area (m ± s.e.) ([7]; concentration 2%, day 1, n = 10): 317.39 ± 3.36 mm^2
- percent variation of wound area in comparison with prednisone controls ([7]; concentration 2%, day 2): -12.38%
- Wound area (m ± s.e.) ([7]; concentration 2%, day 2, n = 10): 305.69 ± 3.89 mm^2
- percent variation of wound area in comparison with prednisone controls ([7]; concentration 2%, day 3): -15.88%
- Wound area (m ± s.e.) ([7]; concentration 2%, day 3, n = 10): 286.62 ± 3.74 mm^2
- healing activity (in words) [8]: higher than that of known drugs employed in this therapeutic field; also recorded: manifests itself by the topical and also oral route both in normal animals and in animals in which the healing process has been slowed down by treatment with steroids; also recorded: superior to that of known drugs employed in this field
- anti-lipid peroxidation activity ex vivo (in words) (rat brain): confirmed
- Changes in U.I. in comparison with controls ([9]; 100 mg/kg): -18,4
- No. of stomach without lesions ([9]; 100 mg/kg): 0
- Ulceration index (U.I.) mean ([9]; 100 mg/kg): 39,6
- Changes in U.I. in comparison with controls ([9]; 200 mg/kg): -28,1
- No. of stomach without lesions ([9]; 200 mg/kg): 0
- Ulceration index (U.I.) mean ([9]; 200 mg/kg): 34,9
- Changes in U.I. in comparison with controls ([9]; 400 mg/kg): -40,8
- No. of stomach without lesions ([9]; 400 mg/kg): 0
- Ulceration index (U.I.) mean ([9]; 400 mg/kg): 28,7
- anti-ulcer activity (in words) ([9]; ulcer protection tests): active in ulcer protection tests; also recorded: particularly active as an anti-ulcer agent
- LD50 ([10]; ip): > 3000 mg/kg
- LD50 ([10]; po): > 6000 mg/kg
- Surface after 3 days of administrations (m ± s.e.) ([11]; 50 mg/kg): 280.47 ± 7.01 mm^2
- percent variation of surface in comparison with prednisone controls ([11]; 50 mg/kg): -9.15%
- Surface after 3 days of administrations (m ± s.e.) ([11]; 100 mg/kg): 271.82 ± 5.35 mm^2
- percent variation of surface in comparison with prednisone controls ([11]; 100 mg/kg): -11.95%
- Surface after 3 days of administrations (m ± s.e.) ([11]; 200 mg/kg): 265.88 ± 4.38 mm^2
- percent variation of surface in comparison with prednisone controls ([11]; 200 mg/kg): -13.87%
- Surface after 3 days of administrations (m ± s.e.) ([11]; 400 mg/kg): 259.99 ± 7.72 mm^2
- percent variation of surface in comparison with prednisone controls ([11]; 400 mg/kg): -15.78%
- reduction of the area of wounds (in words) ([11]; rats, Tables 2 and 3): favourable effect
- anti-lipid peroxidation activity (in words) (rat brain homogenate): strong anti-lipid peroxidation activity
- IC50 (rat brain homogenate; in vitro): 0.45 µM
- inhibition of MDA (malondialdehyde) formation (in words) (rat brain homogenate; in vitro, rat brain homogenate and rat hepatic microsomes): strongly inhibited

Structure (SMILES): O=c1c(O)c(-c2ccc(O)c(O)c2)oc2cc(O)cc(O)c12 [Quercetin, reference compound]
- IC50 (rat hepatic microsomes [3]): 17 µM
- column headed by drawing 3 (hepatic microsomes) (ratio of NADPH consumption IC50 to MDA formation IC50, by arithmetic) (rat hepatic microsomes [3]; hepatic microsomes): 3.3
- column headed by drawing 2 under MDA formation (ratio of hepatic microsomes IC50 to brain homogenate IC50, by arithmetic) (rat hepatic microsomes [4]): 5.7
- IC50 (rat hepatic microsomes [4]): 5.1 µM
- IC50 (rat brain homogenate; in vitro): 0.9 µM
